Test results taken from US12440493B2, “Combination therapy for treating cancer comprising substituted piperazines” (Eli Lilly and Company, priority 2020, dated 2025).
Where “and” joins values, the source holds several entries; their conditions need not be identical. Equal values may be shown once.

Columns and labels:
[1] = tested on: IDH1(R132H) primary human AML cells; assay: AML cell differentiation in blood (flow cytometry, % hCD33+hCD11b+ of hCD45+ cells), human AML PDx models in NSG mice; type: in vivo; conditions: for AML cell differentiation (% hCD33 + hCD11b+ (of hCD45+ cells)): QD, PO
Procedure: (§1) Compounds and Formulation. For in vivo studies, each test article is prepared at an appropriate concentration with vehicle. […] Compound A is prepared fresh at the appropriate concentrations with vehicle every 7 days and stored at 4° C. between doses. […] Cytarabine is prepared fresh weekly by dilution with sterile saline from stock solution of Cytarabine (injection 20 mg/mL, (Pfizer injectables')). Azacitidine (Sigma, Lot #MKBR7212) is formulated in sterile water and is prepared fresh daily immediately before dosing. In vivo human AML PDx models. […] Two models are used in the studies: […] As needed, splenocytes from tumor-bearing mice are used to propagate and expand the models, as described. Each test article is prepared as described above at an appropriate concentration with vehicle to give animals the doses tested in this study at a dosing volume of 10 μL/gram body weight. Mice receiving Compound A (PO, QD) are treated at the indicated doses for the duration of the study. The combination agents are dosed as follows: […] Treated mice are assessed in comparison to vehicle treated and naïve (non-tumor bearing) control mice. Body weight is recorded twice per week. […] AML PDx model propagation. […] Spleens are processed and splenocytes isolated as described below. Two hundred μL per subject of the splenocyte prep is injected IV (intravenous, tail vein) into recipient NSG mice. […] Once engraftment is confirmed, the mice are monitored biweekly until ready to be put on study. […] Submandibular blood is collected. Spleen/Splenocyte Processing and Prep. After excision, a spleen is weighed, and […] is placed in a standard sterile 15 mL polypropylene conical tube containing PBS, and placed on ice. […] The spleen is placed in ice cold sterile PBS in a 15 mL collection tube. The spleen is removed from the collection tube and placed in a 100 micron 50 mL conical tube cell strainer (BD Falcon #352360). The spleen is processed by gentle rubbing of the spleen tissue against the surface of the cell strainer with the end of a 5 mL syringe plunger in a circular motion. The surface of the strainer is rinsed with 10 mL room temperature sterile DPBS (HyClone SH30028) 3 times during the process. […] The cell pellet is collected by centrifugation (300×g) and washed three times with 30 mL sterile DPBS. The cells are counted and resuspended in DPBS at the desired implant concentration. Bone Marrow Collection. […] Flow cytometry analysis of human white cells. Submandibular blood samples from in vivo studies are collected. Fluor-conjugated antibody stains are added according to the manufacturer's instructions (anti-human CD33-PE (clone WM53, BD Cat #555450), anti-human CD14-APC (clone MφpP9, BD Cat #340436), anti-human CD15-V450 (clone HI98, BD Cat #561584), anti-human CD117-BV421 (clone YB5.B8, BD Cat #562434), anti-human […]7 (clone ICRF44, BD Cat #557754), anti-human […]7 (clone HI30, BD Cat #557748), and anti-human CD3-FITC (clone SK7, BD Cat #340542)). The samples are incubated for 30 minutes at room temperature, protected from light. After the incubation, 1.5 mL 1×BD Lyse/Fix (37° C., (BD #558049)) is added to each sample and incubated for 12 minutes at room temperature. The tubes are centrifuged at 300×g for 7 minutes. BD Lyse/Fix solution is aspirated and the cell pellet washed with stain/wash buffer 3 times (1 wash step consisted of: pellet resuspended in 3 mL stain/wash buffer, centrifuged at 300×g, aspirated wash). Fixed cells are then resuspended in 300 to 400 μL stain/wash buffer. Samples are analyzed on a Becton Dickinson FACSVerse Flow cytometer (Cat #651155 Serial #Z6511550447) using standard flow cytometry principles and techniques. Samples are analyzed on the same day as they are stained and fixed. Population gating and data analysis of percent population are performed in the FACSuite software on the FACSVerse cytometer. Percent population values from the data analysis are plotted in Graphpad Prism or in JMP13. […]

[2] = tested on: IDH1(R132H) primary human AML cells; assay: AML clearance in peripheral blood (flow cytometry, % hCD33+hCD45+ of total white cells), human AML PDx models in NSG mice; type: in vivo; conditions: QD, PO, each value one animal
Procedure: as §1

Q: With `C=CC(=O)N1CCN([C@@H](CC2CC2)c2ccc([C@H](C)Nc3ncc4c(n3)N(CC)C(=O)OC4)cc2)CC1` [Compound A, 7-[[(1S)-1-[4-[(1S)-2-cyclopropyl-1-(4-prop-2-enoylpiperazin-1-yl)ethyl]phenyl]ethyl]amino]-1-ethyl-4H-pyrimido[4,5-d][1,3]oxazin-2-one] as the compound, how does the “AML cell differentiation (% hCD33 + hCD11b+ (of hCD45+ cells))” value ([1]; B: 1 mg/kg Compound A, treatment day −8 (before treatment), one animal) read?
A: 19.01% and 16.75%

Q: And the “AML cell differentiation (% hCD33 + hCD11b+ (of hCD45+ cells))” value ([1]; Treatment day 2, 3.3 mg/kg Compound A, Table 2B, each value one animal, 3.3 mg/kg)?
A: 14.12% and 16.05% and 13.27% and 10.34% and 11.59% and 13.32% and 14.01%

Q: And the “AML cell differentiation (% hCD33 + hCD11b+ (of hCD45+ cells))” value ([1]; Treatment day 15, 3.3 mg/kg Compound A, Table 2B, each value one animal, 3.3 mg/kg)?
A: 33.42% and 27.78% and 36.01% and 28.02% and 28.21% and 29.24% and 33.82%

Q: What about the “AML cell differentiation (% hCD33 + hCD11b+ (of hCD45+ cells))” value ([1]; Treatment day 18, 3.3 mg/kg Compound A, each value one animal, 3.3 mg/kg) of the same compound?
A: 23.96% and 27.78% and 22.27% and 22.38% and 22.41% and 29.38% and 24.62%

Q: And the “AML cell differentiation (% hCD33 + hCD11b+ (of hCD45+ cells))” value ([1]; Treatment day 28, 3.3 mg/kg Compound A, Table 2B, each value one animal, 3.3 mg/kg)?
A: 35.79% and 36.46% and 33.59% and 39.91% and 37.16% and 40.47%

Q: What about the “AML cell differentiation (% hCD33 + hCD11b+ (of hCD45+ cells))” value ([1]; Treatment day 34, 3.3 mg/kg Compound A, each value one animal, 3.3 mg/kg) of the same compound?
A: 30.68% and 27.59% and 29.94% and 25.81% and 29.79% and 34.39% and 29.26%

Q: And the “AML cell differentiation (% hCD33 + hCD11b+ (of hCD45+ cells))” value ([1]; Treatment day 43, 3.3 mg/kg Compound A, Table 2B, each value one animal, 3.3 mg/kg)?
A: 37.51% and 35.22% and 33.33% and 36.61% and 41.32% and 33.68% and 39.34%

Q: What about the “AML cell differentiation (% hCD33 + hCD11b+ (of hCD45+ cells))” value ([1]; Treatment day 47, 3.3 mg/kg Compound A, each value one animal, 3.3 mg/kg) of the same compound?
A: 37.61% and 35.31% and 38.58% and 39.61% and 31.81% and 41.02% and 35.79%

Q: And the “AML cell differentiation (% hCD33 + hCD11b+ (of hCD45+ cells))” value ([1]; Treatment day 58, 3.3 mg/kg Compound A, Table 2B, each value one animal, 3.3 mg/kg)?
A: 42.9% and 44.03% and 33.47% and 48.08% and 47.13% and 40.2% and 26.62%

Q: What about the “AML cell differentiation (% hCD33 + hCD11b+ (of hCD45+ cells))” value ([1]; Treatment day 61, 3.3 mg/kg Compound A, each value one animal, 3.3 mg/kg) of the same compound?
A: 37.61% and 40.23% and 40.06% and 33.82% and 32.55% and 43.95% and 44%

Q: What about the “AML cell differentiation (% hCD33 + hCD11b+ (of hCD45+ cells))” value ([1]; Treatment day 75, 3.3 mg/kg Compound A, each value one animal, 3.3 mg/kg) of the same compound?
A: 33.98% and 35.9% and 31.38% and 37.53% and 34.66% and 51.92%

Q: What about the “AML cell differentiation (% hCD33 + hCD11b+ (of hCD45+ cells))” value ([1]; Treatment day 77, 3.3 mg/kg Compound A, Table 2B, each value one animal, 3.3 mg/kg) of the same compound?
A: 56.29% and 46.83% and 42.98% and 48.3% and 51.69% and 48.56%

Q: What about the “AML cell differentiation (% hCD33 + hCD11b+ (of hCD45+ cells))” value ([1]; Treatment day 89, 3.3 mg/kg Compound A, each value one animal, 3.3 mg/kg) of the same compound?
A: 21.32% and 43.96% and 40.34% and 28.57% and 37.17% and 45.68%

Q: What about the “AML cell differentiation (% hCD33 + hCD11b+ (of hCD45+ cells))” value ([1]; Treatment day 98, 3.3 mg/kg Compound A, Table 2B, each value one animal, 3.3 mg/kg) of the same compound?
A: 44.09% and 47.66% and 33.67% and 36.45% and 33.6%

Q: And the “AML cell differentiation (% hCD33 + hCD11b+ (of hCD45+ cells))” value ([1]; Treatment day −3, 3.3 mg/kg Compound A, each value one animal, 3.3 mg/kg)?
A: 11.93% and 12% and 13.59% and 13.22% and 11.07% and 13.07%

Q: What about the “AML cell differentiation (% hCD33 + hCD11b+ (of hCD45+ cells))” value ([1]; Treatment day −19, 3.3 mg/kg Compound A, Table 2B, each value one animal, 3.3 mg/kg) of the same compound?
A: 1.45% and 2.19% and 0.38% and 2.21% and 0.64% and 0.34% and 0.68%

Q: What about the “% AML cell differentiation (treatment group value)” value (“% AML cell differentiation” below) ([1]; day 43, group B: Compound A (3.3 mg/kg), azacitidine study, vehicle 15%) of the same compound?
A: 37%

Q: What about the “% AML cell differentiation” value ([1]; day 47, group B: Compound A (3.3 mg/kg), cytarabine study, vehicle 10%) of the same compound?
A: 37%

Q: What about the “% AML cell differentiation” value ([1]; day 50, group B: 1 mg Compound A, vehicle 28%) of the same compound?
A: 43%

Q: And the “% AML cell differentiation” value ([1]; day 50, group C: 10 mg Compound A, vehicle 28%)?
A: 79%

Q: What about the “AML clearance (% hCD33 + hCD45+ (of total white cells))” value ([2]; Treatment day 2, 3.3 mg/kg Compound A, Table 2A, 3.3 mg/kg) of the same compound?
A: 17.05% and 19.48% and 22.89% and 20.16% and 18.6% and 25.83% and 19.49%

Q: What about the “AML clearance (% hCD33 + hCD45+ (of total white cells))” value ([2]; Treatment day 7, 1 mg/kg Compound A, 1 mg/kg) of the same compound?
A: 12.21% and 7.04% and 6.97% and 8.4% and 10.28%

Q: What about the “AML clearance (% hCD33 + hCD45+ (of total white cells))” value ([2]; Treatment day 7, 10 mg/kg Compound A, 10 mg/kg) of the same compound?
A: 4.04% and 3.35% and 6.37% and 4.2% and 2.73%

Q: What about the “AML clearance (% hCD33 + hCD45+ (of total white cells))” value ([2]; Treatment day 15, 3.3 mg/kg Compound A, Table 2A, 3.3 mg/kg) of the same compound?
A: 35.68% and 39.36% and 39.41% and 22.01% and 44.8% and 40.7% and 29.24%

Q: And the “AML clearance (% hCD33 + hCD45+ (of total white cells))” value ([2]; Treatment day 18, 3.3 mg/kg Compound A, 3.3 mg/kg)?
A: 20.86% and 33.61% and 41.83% and 32.38% and 38.57% and 42.91% and 20.85%

Q: What about the “AML clearance (% hCD33 + hCD45+ (of total white cells))” value ([2]; Treatment day 23, 1 mg/kg Compound A, 1 mg/kg) of the same compound?
A: 16.54% and 9.05% and 15.88% and 9.45%

Q: What about the “AML clearance (% hCD33 + hCD45+ (of total white cells))” value ([2]; Treatment day 23, 10 mg/kg Compound A, 10 mg/kg) of the same compound?
A: 4.97% and 1.6% and 8.52% and 2.88% and 2.41%

Q: What about the “AML clearance (% hCD33 + hCD45+ (of total white cells))” value ([2]; Treatment day 28, 3.3 mg/kg Compound A, Table 2A, 3.3 mg/kg) of the same compound?
A: 32.12% and 43.09% and 32.66% and 35.22% and 35% and 33.35%

Q: What about the “AML clearance (% hCD33 + hCD45+ (of total white cells))” value ([2]; Treatment day 34, 3.3 mg/kg Compound A, 3.3 mg/kg) of the same compound?
A: 27.18% and 34.09% and 34.27% and 48.87% and 20.33% and 33.11% and 34.28%
